# According to patent US11834454B2, “Alkynylphenylbenzamide compounds and applications thereof” (SHENZHEN NEWDEL BIOTECH CO., LTD., priority 2021, dated 2023):
# Columns and labels:
# [1] = target: T1, TRKB (Homo sapiens, UniProt Q16620); test: Z'-LYTE kinase activity detection, TRKB; type: biochemical
# T1 construct: purchased American Life Technologies PV3616
# [2] = target: T2, TRKC (Homo sapiens, UniProt Q16288); test: Z'-LYTE kinase activity detection, TRKC; type: biochemical
# T2 construct: purchased American Life Technologies PV3617
# T2 sequence (Q16288 32-839): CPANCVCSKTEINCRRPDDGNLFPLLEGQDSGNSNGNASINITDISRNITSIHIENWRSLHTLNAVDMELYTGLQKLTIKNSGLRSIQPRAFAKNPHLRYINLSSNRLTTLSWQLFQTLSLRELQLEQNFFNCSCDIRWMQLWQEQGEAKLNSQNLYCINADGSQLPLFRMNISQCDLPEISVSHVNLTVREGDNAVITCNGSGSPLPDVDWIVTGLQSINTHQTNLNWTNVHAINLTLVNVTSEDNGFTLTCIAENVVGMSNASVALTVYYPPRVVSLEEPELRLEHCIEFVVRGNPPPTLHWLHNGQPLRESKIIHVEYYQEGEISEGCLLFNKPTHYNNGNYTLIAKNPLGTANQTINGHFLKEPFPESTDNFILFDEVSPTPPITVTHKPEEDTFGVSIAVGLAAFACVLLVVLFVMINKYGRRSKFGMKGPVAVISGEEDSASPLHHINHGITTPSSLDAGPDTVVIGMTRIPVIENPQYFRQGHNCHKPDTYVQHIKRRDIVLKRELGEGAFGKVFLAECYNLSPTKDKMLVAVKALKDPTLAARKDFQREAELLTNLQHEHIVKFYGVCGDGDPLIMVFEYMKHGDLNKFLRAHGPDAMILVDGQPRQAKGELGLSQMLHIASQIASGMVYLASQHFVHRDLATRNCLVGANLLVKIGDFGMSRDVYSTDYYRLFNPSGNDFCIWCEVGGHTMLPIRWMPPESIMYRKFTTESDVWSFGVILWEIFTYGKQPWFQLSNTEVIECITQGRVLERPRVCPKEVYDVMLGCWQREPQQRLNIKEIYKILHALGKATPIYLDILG
# [3] = target: T3, TRKA (Homo sapiens, UniProt P04629); test: Z'-LYTE kinase activity detection, TRKA; type: biochemical
# T3 construct: purchased American Life Technologies PV3144
# T3 sequence (P04629 33-796): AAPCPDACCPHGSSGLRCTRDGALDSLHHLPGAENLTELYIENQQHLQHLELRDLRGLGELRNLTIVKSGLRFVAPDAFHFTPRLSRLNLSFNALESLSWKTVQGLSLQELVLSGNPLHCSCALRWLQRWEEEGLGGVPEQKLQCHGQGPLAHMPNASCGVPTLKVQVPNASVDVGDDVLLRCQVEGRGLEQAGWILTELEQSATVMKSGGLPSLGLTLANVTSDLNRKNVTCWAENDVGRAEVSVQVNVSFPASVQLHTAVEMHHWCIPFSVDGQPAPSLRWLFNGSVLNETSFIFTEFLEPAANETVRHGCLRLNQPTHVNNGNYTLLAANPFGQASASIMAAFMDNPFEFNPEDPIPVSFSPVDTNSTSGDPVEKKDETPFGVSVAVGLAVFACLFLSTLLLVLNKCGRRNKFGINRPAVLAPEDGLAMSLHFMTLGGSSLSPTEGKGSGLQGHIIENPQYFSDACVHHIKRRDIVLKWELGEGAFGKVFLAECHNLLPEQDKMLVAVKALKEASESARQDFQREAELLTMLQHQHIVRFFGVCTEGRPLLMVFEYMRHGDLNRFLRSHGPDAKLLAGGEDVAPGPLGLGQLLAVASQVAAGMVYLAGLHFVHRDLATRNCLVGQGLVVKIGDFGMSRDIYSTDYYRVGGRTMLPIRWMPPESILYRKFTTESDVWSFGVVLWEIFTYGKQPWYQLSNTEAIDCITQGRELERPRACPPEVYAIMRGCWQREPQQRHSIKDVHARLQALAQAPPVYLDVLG
# [4] = target: T4, BaF3-ETV6-NTRK3 (Homo sapiens, UniProt Q16288); test: Cell proliferation inhibition, Ba/F3-TRKs stable strain (CCK-8); type: cell-based, mouse; conditions: 72 hours, read-out: cell viability IC50 ETV6-NTRK3
# T4 construct: fused on or other part: P41212 (Transcription factor ETV6)
# T4 sequence (Q16288 whole entry, the tested form may be a part): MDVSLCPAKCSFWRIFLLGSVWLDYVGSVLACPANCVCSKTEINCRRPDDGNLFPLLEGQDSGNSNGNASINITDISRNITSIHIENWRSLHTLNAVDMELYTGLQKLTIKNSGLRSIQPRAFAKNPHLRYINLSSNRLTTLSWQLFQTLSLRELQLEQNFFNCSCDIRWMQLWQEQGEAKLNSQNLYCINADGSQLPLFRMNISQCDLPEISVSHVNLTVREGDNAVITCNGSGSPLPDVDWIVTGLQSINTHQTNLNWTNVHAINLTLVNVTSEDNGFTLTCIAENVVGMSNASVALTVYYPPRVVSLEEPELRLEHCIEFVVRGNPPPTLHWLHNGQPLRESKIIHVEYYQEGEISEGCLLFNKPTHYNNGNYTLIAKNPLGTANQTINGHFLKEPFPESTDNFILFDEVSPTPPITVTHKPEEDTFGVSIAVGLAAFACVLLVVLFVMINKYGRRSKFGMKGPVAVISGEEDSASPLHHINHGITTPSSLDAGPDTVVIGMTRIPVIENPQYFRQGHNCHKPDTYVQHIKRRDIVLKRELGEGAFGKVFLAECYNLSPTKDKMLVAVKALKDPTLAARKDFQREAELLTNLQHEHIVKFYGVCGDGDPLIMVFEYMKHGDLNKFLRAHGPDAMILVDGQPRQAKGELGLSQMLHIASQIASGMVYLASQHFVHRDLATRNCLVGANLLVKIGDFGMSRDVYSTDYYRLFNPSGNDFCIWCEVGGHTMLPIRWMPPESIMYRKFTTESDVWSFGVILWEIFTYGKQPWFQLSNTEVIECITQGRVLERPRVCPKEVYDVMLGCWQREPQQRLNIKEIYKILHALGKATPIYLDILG
# Text: (§1) The BaF3 cells (mouse pre-B cells) used in this experiment were purchased from the Japanese Cell Bank. All of the monoclonal stable strains, BaF3-CD74-NTRK1, BaF3-ETV6-NTRK2 and BaF3-ETV6-NTRK3 were constructed by our laboratory, and were identified by experiments such as positive control, protein expression and gene sequencing.
# (§2) The brief steps of stable strain construction were as follows: constructed pCDNA3.1(+) plasmid vector carrying genes such as CD74-NTRK1, ETV6-NTRK2, ETV6-NTRK3; the plasmid was electroporated into Ba/F3 cells using Amaxa® Cell Line Nucleofector® Kit V; 48 hours after electroporation, geneticin (G418) with a final concentration of 1000 μg/mL was added to screen for two weeks, and the interleukin 3 (IL3) was removed to continue screening to obtain polyclonal stable strains; and then single clones were selected by limiting dilution method; the stable strains were then identified by the positive drugs, Western Blot (WB), and gene sequencing; the correct monoclonal through identification can be used to study the cell proliferation inhibitory activity of the inhibitors.
# (§3) Cell proliferation inhibitory activity study: The cells in logarithmic growth phase were seeded into 96-well plates at 8000-12000 cells/well, and the inhibitors at different concentrations of (0-10 μM) were added the next day, and the culture was continued for 72 hours; then 10 μL of Cell Counting Kit-8 Cell Counting Reagent (CCK-8 Reagent) was added to each well, and continued to incubate for 1-3 hours; then its absorbance at 450 nm and 650 nm were measured with a super microplate reader. The median inhibitory concentration (IC50) was calculated using medical graphing software (GraphPad Prism 8.0.0).
# [5] = target: T5, BaF3-CD74-NTRK1 (Homo sapiens, UniProt P04629); test: as above; type: cell-based, mouse; conditions: 72 hours, read-out: cell viability IC50 CD74-NTRK1
# T5 construct: fused on or other part: P04233 (HLA class II histocompatibility antigen gamma chain)
# T5 sequence (P04629 510-796 limits assumed): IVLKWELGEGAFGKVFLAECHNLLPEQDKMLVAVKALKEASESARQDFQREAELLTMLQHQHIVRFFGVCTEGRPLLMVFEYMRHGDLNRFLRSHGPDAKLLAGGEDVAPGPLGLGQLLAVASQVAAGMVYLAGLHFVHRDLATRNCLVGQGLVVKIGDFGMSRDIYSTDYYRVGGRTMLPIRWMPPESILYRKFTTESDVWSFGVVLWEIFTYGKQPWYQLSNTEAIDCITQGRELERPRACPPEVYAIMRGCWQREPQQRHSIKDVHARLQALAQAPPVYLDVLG
# Text: as §1, §2, §3
# [6] = target: T6, BaF3-ETV6-NTRK2 (Homo sapiens, UniProt Q16620); test: as above; type: cell-based, mouse; conditions: 72 hours, read-out: cell viability IC50 ETV6-NTRK2
# T6 construct: fused on or other part: P41212 (Transcription factor ETV6)
# T6 sequence (Q16620 538-822 limits assumed): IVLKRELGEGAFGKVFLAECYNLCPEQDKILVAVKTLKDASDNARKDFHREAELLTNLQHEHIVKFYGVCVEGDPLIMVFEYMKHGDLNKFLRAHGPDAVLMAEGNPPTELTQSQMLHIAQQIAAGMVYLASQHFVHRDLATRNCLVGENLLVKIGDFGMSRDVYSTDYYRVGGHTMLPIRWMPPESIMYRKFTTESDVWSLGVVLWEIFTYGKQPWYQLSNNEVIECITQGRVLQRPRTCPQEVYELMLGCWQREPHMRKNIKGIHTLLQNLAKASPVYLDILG
# Text: as §1, §2, §3
# T1 sequence (Q16620 32-822): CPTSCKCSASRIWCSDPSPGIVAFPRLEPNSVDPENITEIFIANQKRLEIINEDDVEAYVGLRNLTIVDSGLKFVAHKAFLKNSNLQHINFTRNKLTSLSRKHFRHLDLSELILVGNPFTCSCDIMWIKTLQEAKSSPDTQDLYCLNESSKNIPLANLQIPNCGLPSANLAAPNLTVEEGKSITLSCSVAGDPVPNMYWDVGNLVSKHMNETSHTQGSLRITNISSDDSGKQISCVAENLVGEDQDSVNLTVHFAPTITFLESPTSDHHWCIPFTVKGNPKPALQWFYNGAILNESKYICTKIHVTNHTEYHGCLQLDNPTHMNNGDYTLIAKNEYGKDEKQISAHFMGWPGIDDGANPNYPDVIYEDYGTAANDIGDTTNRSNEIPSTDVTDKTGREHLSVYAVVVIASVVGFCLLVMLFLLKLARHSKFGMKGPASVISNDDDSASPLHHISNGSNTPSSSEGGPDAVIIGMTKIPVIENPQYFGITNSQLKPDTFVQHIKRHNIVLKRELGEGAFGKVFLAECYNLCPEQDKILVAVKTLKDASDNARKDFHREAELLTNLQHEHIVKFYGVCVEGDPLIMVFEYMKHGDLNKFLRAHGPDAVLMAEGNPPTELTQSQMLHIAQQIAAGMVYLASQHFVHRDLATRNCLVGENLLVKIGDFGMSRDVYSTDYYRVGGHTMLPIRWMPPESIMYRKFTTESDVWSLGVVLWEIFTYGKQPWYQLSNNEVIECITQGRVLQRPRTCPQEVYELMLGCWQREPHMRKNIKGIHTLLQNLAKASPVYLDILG
Compound,IC50 [1],IC50 [2],IC50 [3],IC50 [4],IC50 [5],IC50 [6]
Cc1cn(-c2cc(NC(=O)c3cccc(C#Cc4cnc5ccc(N6CCOCC6)nn45)c3C)cc(C(F)(F)F)c2)cn1 [XS3-91],< 10 nM,< 10 nM,< 10 nM,< 10 nM,10 to 100 nM,10 to 100 nM
"Cc1c(C#Cc2cnc3ccc(N4CCC(N5CCOCC5)CC4)nn23)cccc1C(=O)Nc1cc(Cl)cc(C(F)(F)F)c1 [XS3-130, N-(3-CHLORO-5-(TRIFLUOROMETHYL)PHENYL)-2-METHYL-3-((6-(4-MORPHOLINPIPERIDIN-1-YL)IMIDAZO[1,2-B]PYRIDAZIN-3-YL)ETHYNYL)BENZAMIDE]",10 to 100 nM,< 10 nM,10 to 100 nM,10 to 100 nM,10 to 100 nM,10 to 100 nM
"Cc1c(C#Cc2cnc3ccc(N4CCC(N)CC4)nn23)cccc1C(=O)Nc1cc(Cl)cc(C(F)(F)F)c1 [XS3-131, 3-((6-(4-AMINOPIPERIDIN-1-YL)IMIDAZO[1,2-B]PYRIDAZIN-3-YL)ETHYNYL)-N-(3-CHLORO-5-(TRIFLUOROMETHYL)PHENYL)-2-METHYLBENZAMIDE]",10 to 100 nM,10 to 100 nM,10 to 100 nM,10 to 100 nM,100 to 1000 nM,100 to 1000 nM
"Cc1c(C#Cc2cnc3ccc(N(C)CCN(C)C)nn23)cccc1C(=O)Nc1cc(Cl)cc(C(F)(F)F)c1 [XS3-134, N-(3-CHLORO-5-(TRIFLUOROMETHYL)PHENYL)-3-((6-((2-(DIMETHYLAMINO)ETHYL)(METHYL)AMINO)IMIDAZO[1,2-B]PYRIDAZIN-3-YL)ETHYNYL)-2-METHYLBENZAMIDE]",10 to 100 nM,10 to 100 nM,10 to 100 nM,10 to 100 nM,100 to 1000 nM,100 to 1000 nM
"COCCNc1ccc2ncc(C#Cc3cccc(C(=O)Nc4cc(Cl)cc(C(F)(F)F)c4)c3C)n2n1 [XS3-135, N-(3-CHLORO-5-(TRIFLUOROMETHYL)PHENYL)-3-((6-((2-METHOXYETHYL)AMINO)IMIDAZO[1,2-B] PYRIDAZIN-3-YL)ETHYNYL)-2-METHYLBENZAMIDE]",10 to 100 nM,10 to 100 nM,10 to 100 nM,10 to 100 nM,100 to 1000 nM,100 to 1000 nM
"Cc1c(C#Cc2cnc3ccc(N4CCN(C5COC5)CC4)nn23)cccc1C(=O)Nc1cc(Cl)cc(C(F)(F)F)c1 [XS3-138, N-(3-CHLORO-5-(TRIFLUOROMETHYL)PHENYL)-2-METHYL-3-((6-(4-(OXETAN-3-YL)PIPERAZINE)-1-YL)IMIDAZO[1,2-B]PYRIDAZIN-3-YL)ETHYNYL)BENZAMIDE]",< 10 nM,< 10 nM,10 to 100 nM,< 10 nM,10 to 100 nM,10 to 100 nM
"Cc1c(C#Cc2cnc3ccc(NCCCCO)nn23)cccc1C(=O)Nc1cc(Cl)cc(C(F)(F)F)c1 [XS3-139, N-(3-CHLORO-5-(TRIFLUOROMETHYL)PHENYL)-3-((6-((4-HYDROXYBUTYL)AMINO)IMIDAZO[1,2-B]PYRIDAZINE-3-YL)ETHYNYL)-2-METHYLBENZAMIDE]",10 to 100 nM,10 to 100 nM,10 to 100 nM,10 to 100 nM,10 to 100 nM,10 to 100 nM
"Cc1c(C#Cc2cnc3ccc(N4CCC(C)(O)CC4)nn23)cccc1C(=O)Nc1cc(Cl)cc(C(F)(F)F)c1 [XS3-153, N-(3-CHLORO-5-(TRIFLUOROMETHYL)PHENYL)-3-(6-(4-HYDROXY-4-METHYLPIPERIDIN-1-YL)IMIDAZO[1,2-B]PYRIDAZIN-3-YL)ETHYNYL)-2-METHYLBENZAMIDE]",10 to 100 nM,10 to 100 nM,10 to 100 nM,10 to 100 nM,10 to 100 nM,10 to 100 nM
COc1cc(NC(=O)c2cccc(C#Cc3cnc4ccc(N5CCOCC5)nn34)c2C)cc(C(F)(F)F)c1 [XS4-72],10 to 100 nM,10 to 100 nM,10 to 100 nM,< 10 nM,10 to 100 nM,10 to 100 nM
Cc1c(C#Cc2cnc3ccc(N4CCOCC4)nn23)cccc1C(=O)Nc1cc(C(F)(F)F)cc(C(F)(F)F)c1 [XS4-76],10 to 100 nM,10 to 100 nM,10 to 100 nM,10 to 100 nM,10 to 100 nM,10 to 100 nM
